Drawing on US10329289B2, “6,7-dihydro-5H-pyrrolo[3,4-B]pyridin-5-one allosteric modulators of the M4 muscarinic acetylcholine receptor” (Merck Sharp & Dohme Corp., priority 2015, dated 2019), this text covers EC50 for 29 compounds.

This test concerns the target T1, human M4 muscarinic acetylcholine receptor (Homo sapiens, UniProt P08173).
T1 construct: expressed in transfected cells; host or cells: CHO-K1
T1 sequence (P08173 1-479): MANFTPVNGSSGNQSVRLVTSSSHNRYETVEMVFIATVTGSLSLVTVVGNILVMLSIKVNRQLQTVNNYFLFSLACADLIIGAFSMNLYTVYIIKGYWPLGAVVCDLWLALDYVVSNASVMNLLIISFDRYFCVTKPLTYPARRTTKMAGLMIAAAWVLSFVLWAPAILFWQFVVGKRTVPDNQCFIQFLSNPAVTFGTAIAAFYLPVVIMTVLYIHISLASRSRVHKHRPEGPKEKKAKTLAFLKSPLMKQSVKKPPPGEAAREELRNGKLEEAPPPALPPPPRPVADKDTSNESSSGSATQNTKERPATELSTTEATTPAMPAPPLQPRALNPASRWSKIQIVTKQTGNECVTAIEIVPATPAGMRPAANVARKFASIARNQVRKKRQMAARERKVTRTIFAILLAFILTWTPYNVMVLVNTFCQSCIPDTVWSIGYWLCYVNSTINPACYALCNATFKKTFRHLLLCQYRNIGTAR
Nature of the test: human FLIPR-based M4 PAM assay (Ca2+ mobilization, CHO-K1 cells with human M4 receptor and Gαqi5). The test is classed as cell-based. To be noted: acetylcholine at 20% of maximum response, read-out: M4 PAM IP. As for the experimental part: In a typical experiment the M4 muscarinic acetylcholine receptor modulating activity of the compounds of the present invention was determined in accordance with the following experimental method. CHO-K1 cells stably transfected with human M4 receptor and chimeric G-protein Gαqi5 (Coward P, et al., Analytical Biochemistry, 270:242-248 (1999)) are thawed from liquid N2 storage, resuspended in growth medium, plated in black, clear bottom 384 well plates, and incubated 16-20 hours at 37° C., 5% CO2. On the day of assay, growth medium is removed, the cells are washed 2 times with wash buffer, and cells are incubated in dye loading buffer at 37° C., 5% CO2 for ˜1 hour. […] Next, 10 uL of acetylcholine is added (final concentration calculated so as to achieve 20% of the maximum acetycholine response), and the fluorescence reading is continued for 3.5 min. In some cases, a third addition of acetylcholine (final concentration calculated to achieve 70% of the maximal acetylcholine response) is performed. The resulting dose response curves are fit to a 4 parameter logistic equation and the final result is determined as the inflection point (IP) of the curve
CHO-K1 cells stably transfected with human M4 receptor and chimeric G-protein Gαqi5 are thawed from liquid N2 storage, resuspended in growth medium, plated in black, clear bottom 384 well plates, and incubated 16-20 hours at 37° C., 5% CO2.
On the day of assay, growth medium is removed, the cells are washed 2 times with wash buffer, and cells are incubated in dye loading buffer at 37° C., 5% CO2 for ˜1 h. […] Next, 10 uL of acetylcholine is added (final concentration calculated so as to achieve 20% of the maximum acetycholine response), and the fluorescence reading is continued for 3.5 min. In some cases, a third addition of acetylcholine (final concentration calculated to achieve 70% of the maximal acetylcholine response) is performed.
For `Cc1c(N2CCC(Oc3cnc4c(c3)COC4)CC2)nc2c(c1C)C(=O)NC2` [Example 227, 2-(4-((5,7-dihydrofuro[3,4-b]pyridin-3-yl)oxy)piperidin-1-yl)-3,4-dimethyl-6,7-dihydro-5H-pyrrolo[3,4-b]pyridin-5-one], the EC50 was determined as 0.435 µM.

`COc1ccc(OC2CCN(c3nc4c(cc3C)C(=O)N(C)C4)CC2)cn1` [Example 18, 2-(4-((6-methoxypyridin-3-yl)oxy)piperidin-1-yl)-3,6-dimethyl-6,7-dihydro-5H-pyrrolo[3,4-b]pyridin-5-one]: the EC50 turned out to be 0.036 µM.

With `Cc1cc2c(nc1N1CCC(Oc3ccc4c(c3)C[C@@H](O)C4)CC1)CNC2=O` (single isomer, unassigned) [Example 324A], the EC50 stood at 0.022 µM. Consider `Cc1cc2c(nc1N1CCC(Oc3ccccc3)CC1)CNC2=O` [Example 5, 3-methyl-2-(4-phenoxypiperidin-1-yl)-6,7-dihydro-5H-pyrrolo[3,4-b]pyridin-5-one], for which the EC50 was determined as 0.021 µM. Then `Cc1cc2c(nc1N1CCC(OCC3(C)CC3C#N)CC1)CNC2=O` (single isomer, unassigned) [Example 193B], with 0.875 µM; and `Cc1c(N2CC[C@@H](Oc3ccc4c(c3)COCC4)[C@@H](F)C2)nc2c(c1C)C(=O)NC2` [Example 194A, 2-((3S,4R)-3-fluoro-4-(isochroman-7-yloxy)piperidin-1-yl)-3,4-dimethyl-6,7-dihydro-5H-pyrrolo[3,4-b]pyridin-5-one], with 0.02 µM; and `Cc1cc2c(nc1N1CCC(Oc3ccc4c(cnn4C)c3)CC1)CN(CCO)C2=O` [Example 239A, 6-(2-hydroxyethyl)-3-methyl-2-(4-((1-methyl-1H-indazol-5-yl)oxy)piperidin-1-yl)-6,7-dihydro-5H-pyrrolo[3,4-b]pyridin-5-one], with 0.086 µM.

As to `Cc1cc2c(nc1N1CCC(Oc3ccn4ccnc4c3)CC1)CNC2=O` [Example 140, 2-(4-(imidazo[1,2-a]pyridin-7-yloxy)piperidin-1-yl)-3-methyl-6,7-dihydro-5H-pyrrolo[3,4-b]pyridin-5-one], the EC50 was 4.71 µM.

Consider `CCn1cc(OC2CCN(c3nc4c(cc3C)C(=O)NC4)CC2)cn1` [Example 169A, 2-(4-((1-ethyl-1H-pyrazol-4-yl)oxy)piperidin-1-yl)-3-methyl-6,7-dihydro-5H-pyrrolo[3,4-b]pyridin-5-one], for which the EC50 came to 0.18 µM. The figure for `COc1ccc(O[C@H]2CCN(c3nc4c(cc3C)C(=O)NC4)C[C@H]2C)cn1` [Example 29B, 2-((3R,4S)-4-((6-methoxypyridin-3-yl)oxy)-3-methylpiperidin-1-yl)-3-methyl-6,7-dihydro-5H-pyrrolo[3,4-b]pyridin-5-one] is 30 µM. Then `Cc1cc2c(nc1N1CCC(Oc3ccc4c(c3)OCC4)CC1)[C@@H](CO)N(C)C2=O` [Example 355, (S)-2-(4-((2,3-dihydrobenzofuran-6-yl)oxy)piperidin-1-yl)-7-(hydroxymethyl)-3,6-dimethyl-6,7-dihydro-5H-pyrrolo[3,4-b]pyridin-5-one], with 0.016 µM; and `Cc1cc2c(nc1N1CCC(Oc3cnc4c(c3)COC4)CC1)CNC2=O` [Example 48, 2-(4-((5,7-dihydrofuro[3,4-b]pyridin-3-yl)oxy)piperidin-1-yl)-3-methyl-6,7-dihydro-5H-pyrrolo[3,4-b]pyridin-5-one], with 0.061 µM. As to `Cc1cc2c(nc1N1CCC(Oc3ccc([C@@H](C)O)cc3)CC1)CNC2=O` (single isomer, unassigned) [Example 150A], the EC50 came to 0.124 µM.

On to `Cc1cc2c(nc1N1CCC(Oc3cccc(C#N)c3)CC1)C(C)(C)N(C)C2=O` [Example 15, 3-((1-(3,6,7,7-tetramethyl-5-oxo-6,7-dihydro-5H-pyrrolo[3,4-b]pyridin-2-yl)piperidin-4-yl)oxy)benzonitrile], for which the EC50 came to 1.99 µM. As to `Cc1c(N2CC[C@@H](OCC3(C)CC3)[C@@H](F)C2)nc2c(c1C)C(=O)N(C)[C@H]2CO` [Example 342A, (R)-2-((3S,4R)-3-fluoro-4-((1-methylcyclopropyl)methoxy)piperidin-1-yl)-7-(hydroxymethyl)-3,4,6-trimethyl-6,7-dihydro-5H-pyrrolo[3,4-b]pyridin-5-one], the EC50 was determined as 0.884 µM.

With `COc1ccc(OC2CCN(c3nc4c(cc3C)C(=O)N([C@H](C)CO)C4)CC2)cn1` (single isomer, unassigned) [Example 264B], the EC50 was 0.108 µM. Then `COc1ccc(OC2CCN(c3nc4c(cc3C)C(=O)NC43CC3)CC2)cn1` [Example 300], with 0.286 µM; and `Cc1c(N2CCC(Oc3ccc4c(c3)COC4)CC2)nc2c(c1C)C(=O)N(CCO)C2` [Example 264A, 2-(4-((1,3-Dihydro-2-benzofuran-5-yl)oxy)piperidin-1-yl)-6-(2-hydroxyethyl)-3,4-dimethyl-6,7-dihydro-5H-pyrrolo[3,4-b]pyridin-5-one], with 0.038 µM; and `Cc1cc2c(nc1N1CCC(Oc3cnn(C)c3)CC1)[C@H](CO)N(C)C2=O` [Example 358, (R)-7-(hydroxymethyl)-3,6-dimethyl-2-(4-((1-methyl-1H-pyrazol-4-yl)oxy)piperidin-1-yl)-6,7-dihydro-5H-pyrrolo[3,4-b]pyridin-5-one], with 8.07 µM. Then `Cc1cc2c(nc1N1CCC(OCC3(C)CC3(F)F)CC1)CNC2=O` (centres unmarked) [Example 64, 2-(4-((2,2-difluoro-1-methylcyclopropyl)methoxy)piperidin-1-yl)-3-methyl-6,7-dihydro-5H-pyrrolo[3,4-b]pyridin-5-one], with 0.206 µM.

With `Cc1c(N2CCC(Oc3ccc4c(c3)OCC4)CC2)nc2c(c1C)C(=O)NC2` [Example 333, 2-(4-((2,3-dihydrobenzofuran-6-yl)oxy)piperidin-1-yl)-3,4-dimethyl-6,7-dihydro-5H-pyrrolo[3,4-b]pyridin-5-one], the EC50 was found to be 0.037 µM. Then `Cc1c(N2CCC(Oc3ccc4c(c3)CCOC4)CC2)nc2c(c1C)C(=O)N(C)[C@H]2CO` [Example 370, (R)-7-(hydroxymethyl)-2-(4-(isochroman-6-yloxy)piperidin-1-yl)-3,4,6-trimethyl-6,7-dihydro-5H-pyrrolo[3,4-b]pyridin-5-one], with 1.19 µM; and `CCc1cc2c(nc1N1CC[C@H](OCC3(C)CC3)C(F)(F)C1)CNC2=O` (single isomer, unassigned) [Example 374B], with 0.045 µM; and `Cc1cc2c(nc1N1CCC(OCC3(F)CC3)CC1)CNC2=O` [Example 64A, 2-(4-((1-fluorocyclopropyl)methoxy)piperidin-1-yl)-3-methyl-6,7-dihydro-5H-pyrrolo[3,4-b]pyridin-5-one], with 0.192 µM. In the case of `Cc1c(N2CCC(Oc3ccc4c(c3)COC4)CC2)nc2c(c1C)C(=O)N([C@H](C)CO)C2` [Example 266C, (R)-2-(4-((1,3-dihydro-2-benzofuran-5-yl)oxy)piperidin-1-yl)-6-(1-hydroxypropan-2-yl)-3,4-dimethyl-6,7-dihydro-5H-pyrrolo[3,4-b]pyridin-5-one], the EC50 was determined as 0.064 µM. On to `Cc1cc(N2CCC(OCC3(C)CC3)CC2)nc2c1C(=O)NC2` [Example 224, 4-methyl-2-(4-((1-methylcyclopropyl)methoxy)piperidin-1-yl)-6,7-dihydro-5H-pyrrolo[3,4-b]pyridin-5-one], for which the EC50 amounted to 3.52 µM. With `Cc1cc2c(nc1N1CCC(Oc3cnn(C)c3)CC1)[C@@H](CO)N(C)C2=O` [Example 357, (S)-7-(hydroxymethyl)-3,6-dimethyl-2-(4-((1-methyl-1H-pyrazol-4-yl)oxy)piperidin-1-yl)-6,7-dihydro-5H-pyrrolo[3,4-b]pyridin-5-one], the EC50 is 0.087 µM. Then `Cc1cc2c(nc1N1CCC(Oc3ccc4c(c3)CCOC4)CC1)[C@@H](CO)N(C)C2=O` [Example 349A, (S)-7-(hydroxymethyl)-2-(4-(isochroman-6-yloxy)piperidin-1-yl)-3,6-dimethyl-6,7-dihydro-5H-pyrrolo[3,4-b]pyridin-5-one], with 0.022 µM. Then `Cc1cc2c(nc1N1CCC(Oc3cccc(C#N)c3)CC1)[C@@H](C)N(C)C2=O` [Example 28A, (R)-3-((1-(3,6,7-trimethyl-5-oxo-6,7-dihydro-5H-pyrrolo[3,4-b]pyridin-2-yl)piperidin-4-yl)oxy)benzonitrile], with 0.084 µM.
